Test results from patent US12319655B2, “RAF kinase inhibitors and methods of use thereof” (Deciphera Pharmaceuticals, LLC, priority 2021, dated 2025).
pIC50: −log10 of the molar value.

Legend:
[1] = target: A-Raf kinase (SEQ. ID No: 1) (Homo sapiens (Human), UniProt P10398, Y301D/Y302D); experiment: Biochemical Assay for A-Raf (1); settings: Table J, assay version (1); read-out: ARAF (1) IC50
Procedure, shortened: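 A-Raf Y301D/Y302D at 5.55 nM phosphorylates 30.1 nM MEK with 1 mM ATP in pH 7.5 Tris buffer, 1% DMSO. Activity was read continuously as NADH oxidation at 340 nm in a pyruvate kinase/lactate dehydrogenase coupled system for 6 h at 30 °C. Rates from 4–5 h were converted to percent inhibition, and IC50 came from a four-parameter fit.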

H2405 cells = experiment: H2405 Cell Proliferation Assay (1); format: cell-based; settings: Homo sapiens, NCI-H2405
Procedure, shortened: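 Viability was read by resazurin reduction (ex 540 nm, em 600 nm; 5-6 h with 40 μL of 440 μM stock) after 67-72 h compound exposure at 37 °C.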

[2] = target: B-Raf (V600E) (SEQ. ID NO: 4) kinase (Homo sapiens (Human), UniProt P15056, V600E); experiment: Biochemical Assay for B-Raf (V600E) (1); settings: Table J, BRAF V600E, assay version (1); read-out: BRAF VE (1) IC50
Sequence of B-Raf (V600E) (SEQ. ID NO: 4) kinase (P15056 416-766 V600E): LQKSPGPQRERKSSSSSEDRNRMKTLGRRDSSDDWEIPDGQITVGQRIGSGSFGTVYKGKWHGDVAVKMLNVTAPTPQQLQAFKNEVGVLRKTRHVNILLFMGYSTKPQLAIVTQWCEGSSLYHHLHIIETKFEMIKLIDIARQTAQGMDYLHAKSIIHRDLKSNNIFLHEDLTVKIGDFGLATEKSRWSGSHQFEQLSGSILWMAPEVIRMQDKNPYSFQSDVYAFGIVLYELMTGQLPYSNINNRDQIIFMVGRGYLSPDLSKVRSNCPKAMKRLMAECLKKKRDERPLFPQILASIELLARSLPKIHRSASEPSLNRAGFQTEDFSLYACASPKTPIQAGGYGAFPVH
Procedure, shortened: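 Coupled pyruvate kinase/lactate dehydrogenase assay: 0.03 nM B-Raf V600E, 30.1 nM MEK, 1 mM ATP, pH 7.5 Tris/MgCl2 buffer, 1% DMSO. NADH oxidation followed at 340 nm for 6 h at 30 °C; rate from 3–4 h converted to percent inhibition, IC50 by four-parameter fit.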

Miapaca-2 cells = experiment: MiaPaca-2 Cell Proliferation Assay (1); format: cell-based; settings: Homo sapiens, MIA PaCa-2, single agent, read-out: MiaPaca2 (1) IC50
Procedure, shortened: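 Resazurin was added after compound exposure and incubated 5-6 h, then fluorescence read at 540 nm excitation and 600 nm emission to give IC50.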

Sequence of A-Raf kinase (SEQ. ID No: 1) (P10398 other isoform, or with tags, fused parts or gaps Y301D (already in the parent)/Y302D (already in the parent)): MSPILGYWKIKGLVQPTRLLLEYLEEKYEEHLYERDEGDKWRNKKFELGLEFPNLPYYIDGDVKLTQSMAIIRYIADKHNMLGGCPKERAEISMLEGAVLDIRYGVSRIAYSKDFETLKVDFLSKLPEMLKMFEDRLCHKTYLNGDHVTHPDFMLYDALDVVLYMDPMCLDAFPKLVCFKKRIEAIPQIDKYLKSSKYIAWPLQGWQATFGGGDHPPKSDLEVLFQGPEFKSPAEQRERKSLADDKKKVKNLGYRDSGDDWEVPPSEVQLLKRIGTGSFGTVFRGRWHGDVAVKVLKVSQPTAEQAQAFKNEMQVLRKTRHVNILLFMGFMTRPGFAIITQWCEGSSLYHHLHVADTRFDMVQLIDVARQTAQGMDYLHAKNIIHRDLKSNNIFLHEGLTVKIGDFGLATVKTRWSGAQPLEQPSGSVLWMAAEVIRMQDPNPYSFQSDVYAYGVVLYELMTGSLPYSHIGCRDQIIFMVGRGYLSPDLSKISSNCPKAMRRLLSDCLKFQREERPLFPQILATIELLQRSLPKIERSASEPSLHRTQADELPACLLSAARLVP

| pIC50 [1] | pIC50 (H2405 cells) | pIC50 [2] | pIC50 (Miapaca-2 cells) | Structure (SMILES) |
| --- | --- | --- | --- | --- |
| 5.00 to 6.00 | 6.30 to 7.00 | ≥ 7.00 | 5.00 to 6.00 | CCOc1cc(-c2cc(NC(=O)c3ccnc(C(F)(F)F)c3)ccc2C)cc(-c2ccnc(NC(=O)C3CC3)c2)n1 [Example 12] |
| 5.00 to 6.00 | ≥ 7.00 | ≥ 7.00 | 5.00 to 6.00 | CC(=O)Nc1cc(-c2cc(-c3cc(NC(=O)c4ccnc(C(F)(F)F)c4)ccc3C)cc(N3CCOCC3)n2)ccn1 [Example 15] |
| 5.00 to 6.00 | 5.00 to 6.00 | ≥ 7.00 | 5.00 to 6.00 | Cc1ccc(NC(=O)c2ccnc(C(F)(F)F)c2)cc1-c1ccnc(-c2ccnc(N)c2)c1 [Example 16, N-(3-(2′-amino-[2,4′-bipyridin]-4-yl)-4-methylphenyl)-2-(trifluoromethyl)isonicotinamide] |
| 6.00 to 6.30 | ≥ 7.00 | ≥ 7.00 | 6.30 to 7.00 | CC(=O)Nc1cc(-c2cc(-c3cc(NC(=O)c4ccnc(C(C)(C)C#N)c4)ccc3C)ccn2)ccn1 [Example 19] |
| 6.00 to 6.30 | ≥ 7.00 | ≥ 7.00 | 5.00 to 6.00 | Cc1ccc(NC(=O)c2ccnc(C(C)(C)F)c2)cc1-c1ccnc(-c2ccnc(NC(=O)C3CC3)c2)n1 [Example 186] |
| 6.30 to 7.00 | 6.30 to 7.00 | ≥ 7.00 | 5.00 to 6.00 | Cc1ccc(NC(=O)c2ccnc(C3(C#N)CC3)c2)cc1-c1nccc(-c2ccnc(NC(=O)C3CC3)c2)n1 [Example 187] |
| 6.00 to 6.30 | 6.30 to 7.00 | ≥ 7.00 | 5.00 to 6.00 | Cc1ccc(NC(=O)c2ccnc(C(F)F)c2)cc1-c1ccnc(-c2ccnc(NC(=O)C3CC3)c2)n1 [Example 189] |
| 5.00 to 6.00 | 6.30 to 7.00 | ≥ 7.00 | 5.00 to 6.00 | CNC(=O)c1cc(-c2cccc(-c3cc(NC(=O)c4ccnc(C(C)(C)C#N)c4)cnc3C)c2)ccn1 [Example 192] |
| 5.00 to 6.00 | ≥ 7.00 | ≥ 7.00 | 5.00 to 6.00 | Cc1ncc(NC(=O)c2ccnc(C(C)(C)C#N)c2)cc1-c1ccnc(-c2ccnc(NC(=O)C3CC3)c2)n1 [Example 193] |
| 5.00 to 6.00 | 6.30 to 7.00 | ≥ 7.00 | 5.00 to 6.00 | Cc1ccc(NC(=O)c2cc(CN(C)C)cc(C(F)(F)F)c2)cc1-c1cccc(-c2cc(NC(=O)C3CC3)ncn2)c1 [Example 202] |
| 5.00 to 6.00 | 6.30 to 7.00 | ≥ 7.00 | 5.00 to 6.00 | CNC(=O)c1cc(-c2cccc(-c3cc(NC(=O)c4ccnc(C(C)(C)C#N)c4)cnc3C)c2)ncn1 [Example 204] |
| 5.00 to 6.00 | ≥ 7.00 | ≥ 7.00 | 5.00 to 6.00 | Cc1cc(-c2cc(NC(=O)C3CC3)ncn2)cc(-c2cc(NC(=O)c3ccnc(C(C)(C)C#N)c3)ccc2C)c1 [Example 212] |
| 5.00 to 6.00 | 6.30 to 7.00 | ≥ 7.00 | 5.00 to 6.00 | CNC(=O)c1cc(-c2cc(-c3cc(NC(=O)c4ccnc(C(C)(C)F)c4)ccc3C)ccn2)ccn1 [Example 214] |
| 5.00 to 6.00 | 6.30 to 7.00 | ≥ 7.00 | 5.00 to 6.00 | Cc1ncc(NC(=O)c2ccnc(C(C)(C)C#N)c2)cc1-c1cc(-c2cc(NC(=O)C3CC3)ncn2)cc(C2CC2)c1 [Example 218] |
| 5.00 to 6.00 | 5.00 to 6.00 | ≥ 7.00 | 5.00 to 6.00 | COCCNc1cc(-c2nccc(-c3cc(NC(=O)c4ccnc(C(C)(C)C#N)c4)ccc3C)n2)ccn1 [Example 221] |
| 6.00 to 6.30 | 6.30 to 7.00 | ≥ 7.00 | 5.00 to 6.00 | Cc1ncc(NC(=O)c2ccnc(C(C)(C)C#N)c2)cc1-c1cccc(-c2ccnc(NC(=O)C3CC3)c2)c1 [Example 222] |
| 6.00 to 6.30 | ≥ 7.00 | ≥ 7.00 | 6.30 to 7.00 | Cc1ccc(NC(=O)c2ccnc(C(C)(C)C#N)c2)cc1-c1cncc(-c2cc(NC(=O)C3CC3)ncn2)c1 [Example 224] |
| 5.00 to 6.00 | 6.00 to 6.30 | ≥ 7.00 | 5.00 to 6.00 | COC(=O)Nc1cc(-c2cccc(-c3cc(NC(=O)c4ccnc(C(C)(C)C#N)c4)cnc3C)c2)ncn1 [Example 225] |
| 6.30 to 7.00 | ≥ 7.00 | ≥ 7.00 | 5.00 to 6.00 | Cc1ccc(NC(=O)c2ccnc(C3CC3)c2)cc1-c1ccnc(-c2ccnc(NC(=O)C3CC3)c2)n1 [Example 229] |
| 5.00 to 6.00 | ≥ 7.00 | ≥ 7.00 | 6.00 to 6.30 | Cc1ccc(NC(=O)c2ccnc(C(C)(C)C#N)c2)cc1-c1cnnc(-c2ccnc(NC(=O)C3CC3)c2)c1 [Example 230] |

| pIC50 [1] | pIC50 (H2405 cells) | pIC50 [2] | pIC50 (Miapaca-2 cells) | Structure (SMILES) |
| --- | --- | --- | --- | --- |
| 5.00 to 6.00 | ≥ 7.00 | ≥ 7.00 | 5.00 to 6.00 | CNC(=O)c1cc(-c2cc(-c3cc(NC(=O)c4cccc(C(C)(C)C#N)c4)ccc3C)cc(OCCO)n2)ccn1 [Example 231] |
| 5.00 to 6.00 | 6.30 to 7.00 | ≥ 7.00 | 5.00 to 6.00 | CNC(=O)c1cc(-c2cncc(-c3cc(NC(=O)c4ccnc(C(C)(C)C#N)c4)ccc3C)c2)ncn1 [Example 235] |
| 5.00 to 6.00 | ≥ 7.00 | ≥ 7.00 | 6.00 to 6.30 | Cc1ccc(NC(=O)c2ccnc(C(C)(C)C#N)c2)cc1-c1ccnc(-c2ccnc(NC(=O)C3(C#N)CC3)c2)n1 [Example 241] |
| 6.00 to 6.30 | ≥ 7.00 | ≥ 7.00 | 5.00 to 6.00 | Cc1ccc(NC(=O)c2ccnc(C(C)(C)C#N)c2)cc1-c1cc(-c2ccnc(NC(=O)C3CC3)c2)cnn1 [Example 245] |
| 6.00 to 6.30 | 6.30 to 7.00 | ≥ 7.00 | 5.00 to 6.00 | Cc1ncc(NC(=O)c2ccnc(C(C)(C)F)c2)cc1-c1cccc(-c2cc(NC(=O)C3CC3)ncn2)c1 [Example 249] |
| 5.00 to 6.00 | 6.30 to 7.00 | ≥ 7.00 | 5.00 to 6.00 | Cc1ccc(NC(=O)c2cnnc(C3CC3)c2)cc1-c1ccnc(-c2ccnc(NC(=O)C3CC3)c2)n1 [Example 250] |
| 5.00 to 6.00 | 6.30 to 7.00 | ≥ 7.00 | 5.00 to 6.00 | Cc1ncc(NC(=O)c2ccnc(C(C)(C)C#N)c2)cc1-c1ccnc(-c2ccnc(NC(=O)C3CC3)c2)c1 [Example 251] |
| 5.00 to 6.00 | 6.30 to 7.00 | ≥ 7.00 | 5.00 to 6.00 | Cc1ncc(NC(=O)c2ccnc(C3CC3)c2)cc1-c1ccnc(-c2ccnc(NC(=O)C3CC3)c2)c1 [Example 253] |
| 5.00 to 6.00 | 5.00 to 6.00 | ≥ 7.00 | 5.00 to 6.00 | Cc1ncc(NC(=O)c2cnnc(C3CC3)c2)cc1-c1ccnc(-c2ccnc(NC(=O)C3CC3)c2)c1 [Example 254] |
| 5.00 to 6.00 | 6.30 to 7.00 | ≥ 7.00 | 5.00 to 6.00 | Cc1ncc(NC(=O)c2ccnc(C3CC3)c2)cc1-c1cnc(C)c(-c2ccnc(NC(=O)C3CC3)c2)c1 [Example 256] |
| 5.00 to 6.00 | 6.30 to 7.00 | ≥ 7.00 | 5.00 to 6.00 | CNC(=O)c1cc(-c2cc(-c3cc(NC(=O)c4ccnc(C(C)(C)OC)c4)ccc3C)ccn2)ccn1 [Example 264] |
| 5.00 to 6.00 | ≥ 7.00 | ≥ 7.00 | 5.00 to 6.00 | CNC(=O)c1cc(-c2cc(-c3cc(NC(=O)c4ccnc(C5(C#N)CC5)c4)ccc3C)ccn2)ccn1 [Example 265] |
| 5.00 to 6.00 | 6.00 to 6.30 | ≥ 7.00 | 5.00 to 6.00 | Cc1ccc(NC(=O)c2ccnc(C(C)(C)C#N)c2)cc1-c1cccc(-c2cc(N)ncn2)c1 [Example 267] |
| 5.00 to 6.00 | 6.30 to 7.00 | ≥ 7.00 | – | CNC(=O)c1cc(-c2ccnc(-c3cc(NC(=O)c4ccnc(C(C)(C)OC)c4)ccc3C)n2)ccn1 [Example 268] |
| 5.00 to 6.00 | ≥ 7.00 | ≥ 7.00 | – | Cc1ncc(NC(=O)c2ccnc(C(C)C)c2)cc1-c1cccc(-c2ccnc(NC(=O)C3CC3)c2)n1 [Example 269] |
| 5.00 to 6.00 | 6.30 to 7.00 | ≥ 7.00 | 5.00 to 6.00 | Cc1ncc(NC(=O)c2ccnc(C3CC3)c2)cc1-c1cccc(-c2ccnc(NC(=O)C3CC3)c2)n1 [Example 270] |
| 6.00 to 6.30 | 6.30 to 7.00 | ≥ 7.00 | 5.00 to 6.00 | Cc1cc(F)c(NC(=O)c2ccnc(C(F)(F)F)c2)cc1-c1cncc(-c2ccnc(NC(=O)C3CC3)c2)n1 [Example 271] |
| 5.00 to 6.00 | 5.00 to 6.00 | ≥ 7.00 | 5.00 to 6.00 | Cc1cc(C(=O)Nc2cnc(C)c(-c3ccnc(-c4ccnc(NC(=O)C5CC5)c4)n3)c2)ccn1 [Example 273] |
| 6.30 to 7.00 | ≥ 7.00 | ≥ 7.00 | – | Cc1cc(F)c(NC(=O)c2ccnc(C(C)(C)F)c2)cc1-c1cncc(-c2ccnc(NC(=O)C3CC3)c2)n1 [Example 276] |
| 5.00 to 6.00 | 6.30 to 7.00 | ≥ 7.00 | – | Cc1ncc(NC(=O)c2ccnc(C3CC3)c2)cc1-c1ccnc(-c2ccnc(NC(=O)C3CC3)c2)n1 [Example 277] |
